Laboratory results reported in PMC8175350, “Drug repurposing screens identify chemical entities for the development of COVID-19 interventions” (Nature Communications, 2021).
Counter-ions that a name gives are not always drawn. Like-named read-outs stand apart in the source and are kept apart here.

Assays:
[1] = in vitro; conditions: human
[2] = system: SARS-CoV-2; experiment: microbe, parasite or virus in culture; type: cell-based; conditions: for Emax: Severe acute respiratory syndrome coronavirus 2, HeLa-ACE2, 24 h, curve-fit effect at infinite concentration, average, read-out: HeLa-ACE2 CoV-2 Sinf Average
[3] = system: HeLa-ACE2 cells; experiment: cells; conditions: Homo sapiens; for Emax: HeLa-ACE2, 24 h, read-out: HeLa-ACE2 cell count Sinf Average
[4] = Uninfected HeLa-ACE2 24 h live/dead cytotoxicity counter screen; type: cell-based, human; conditions: human, uninfected HeLa-ACE2 cells
[5] = system: Calu-3 cells; experiment: cells; conditions: Homo sapiens; for Emax: Calu-3, 48 h
[6] = system: SARS-CoV-2; experiment: microbe, parasite or virus in culture; type: cell-based; conditions: for Emax: Severe acute respiratory syndrome coronavirus 2, Calu-3, 48 h
[7] = system: Calu-3 cells
[8] = system: HeLa-ACE2 cells; experiment: Uninfected HeLa-ACE2 24 h live/dead cytotoxicity counter screen; type: cell-based, human; conditions: for HeLa-ACE2 uninfected cytotoxicity Sinf Average (%): Sinf average of the curves; for HeLa-ACE2 uninfected cytotoxicity Sinf Average: curve-fit effect at infinite concentration
[9] = system: SARS-CoV-2; experiment: microbe, parasite or virus in culture; type: cell-based; conditions: HeLa-ACE2
[10] = Calu-3 uninfected cytotoxicity CC50 GeoMean
[11] = unrounded geometric mean, read-out: HeLa-ACE2 uninfected cytotoxicity CC50 GeoMean
[12] = read-out: Calu-3 cell count Sinf Average
[13] = curve-fit effect at infinite concentration, average, read-out: Calu-3 CoV-2 Sinf Average
[14] = Severe acute respiratory syndrome coronavirus 2, Calu-3, unrounded geometric mean, read-out: Calu-3 CoV-2 EC50 GeoMean
[15] = Severe acute respiratory syndrome coronavirus 2, HeLa-ACE2, geometric mean of replicates, read-out: HeLa-ACE2 CoV-2 EC50 GeoMean
[16] = HeLa-ACE2, read-out: HeLa-ACE2 cell count EC50 GeoMean (µM), geometric mean of replicates
[17] = geometric mean of replicates, read-out: HeLa-ACE2 uninfected cytotoxicity CC50 GeoMean
[18] = read-out: Calu-3 cell count Sinf Average (%)
[19] = Calu-3, read-out: Calu-3 cell count EC50 GeoMean (µM), geometric mean of replicates
[20] = Sinf average of the curves, read-out: Calu-3 CoV-2 Sinf Average (%)
[21] = Severe acute respiratory syndrome coronavirus 2, Calu-3, geometric mean of replicates, read-out: Calu-3 CoV-2 EC50 GeoMean
[22] = Calu-3 uninfected cytotoxicity CC50 GeoMean (µM)
[23] = Calu-3 uninfected cytotoxicity CC50 GeoMean, unrounded geometric mean
[24] = Severe acute respiratory syndrome coronavirus 2, HeLa-ACE2, unrounded geometric mean, read-out: HeLa-ACE2 CoV-2 EC50 GeoMean
[25] = HeLa-ACE2, read-out: HeLa-ACE2 cell count EC50 GeoMean, unrounded geometric mean
[26] = Calu-3, read-out: Calu-3 cell count EC50 GeoMean, unrounded geometric mean
[27] = uninfected cells, Fig. 2b group, read-out: HeLa-ACE2 CC50
[28] = Severe acute respiratory syndrome coronavirus 2, HeLa-ACE2, reconfirmed hits, read-out: HeLa-ACE2 SARS-CoV-2 EC50
[29] = reconfirmed hits, read-out: HeLa-ACE2 Uninf. cells CC50
[30] = Severe acute respiratory syndrome coronavirus 2, Calu-3, reconfirmed hits, read-out: Calu-3 SARS-CoV-2 EC50

Structure (SMILES) | CC50 at 24 h [4, 11] [µM] | Emax [5, 12] [%] | Emax [6, 13] [%] | EC50 [6, 14] [µM] | EC50 [2, 15] [µM] | EC50 [3, 16] [µM] | CC50 at 24 h [4, 17] [µM] | Emax [5, 18] [%] | EC50 [5, 19] [µM] | Emax [6, 20] [%] | EC50 [6, 21] [µM] | CC50 at 48 h [1, 22] [µM] | uninfected Calu-3 CC50 [μM] [7] | EC50 [2, 24] [µM] | EC50 [3, 25] [µM] | EC50 [5, 26] [µM] | also measured
CCc1ccc(C2=CC(C)(C)Sc3ccc(C#Cc4ccc(C(=O)O)cc4)cc32)cc1 [AGN-194310] | > 39.8 | 100 | 85 | 0.597 | – | – | – | – | – | – | – | – | – | – | – | – | CC50 [1, 10]: > 29.9 µM; EC50 ([2]; Severe acute respiratory syndrome coronavirus 2, HeLa-ACE2, read-out: HeLa-ACE2 CoV-2 EC50 GeoMean): > 9.59 µM; EC50 ([3]; HeLa-ACE2, read-out: HeLa-ACE2 cell count EC50 GeoMean): > 9.59 µM; EC50 ([5]; Calu-3, read-out: Calu-3 cell count EC50 GeoMean): > 7.77 µM; uninfected Calu-3 CC50 [7]: > 29.867 ×÷ 1 (n=3) μM; Calu-3 uninfected cytotoxicity Sinf Average ([7]; human): -100%
CCCCCC[C@H]1C(=O)O[C@H](C)[C@H](NC(=O)c2cccc(NC=O)c2O)C(=O)O[C@@H](C)[C@@H]1OC(=O)CC(C)C [Antimycin A] | – | – | – | – | > 9.59 | > 9.59 | > 39.8 | 48 | 0.22 | 93 | < 0.0277 | – | – | – | – | – | HeLa-ACE2 uninfected cytotoxicity Sinf Average (%) [8]: -100%; Calu-3 uninfected cytotoxicity CC50 GeoMean ([7]; human): > 0.6084 µM; uninfected Calu-3 CC50 [μM] ([7]; human): > 0.608 ×÷ 246.09 (n=2) μM
O=c1[nH]c2ccc(C(F)(F)F)cc2c(-c2cc(Cl)ccc2O)c1CCO [BMS-223131] | – | – | – | – | > 9.59 | > 9.59 | 21.4 | 100 | > 9.98 | 100 | 5.14 | > 29.9 | > 29.867 ×÷ 1 (n=3) μM | – | – | – | HeLa-ACE2 uninfected cytotoxicity Sinf Average (%) [8]: -100%; Calu-3 uninfected cytotoxicity Sinf Average (%) ([7]; human, 48 h): -100%
CN(C)C(=O)COC(=O)Cc1ccc(OC(=O)c2ccc(NC(=N)N)cc2)cc1 [Camostat mesylate] | > 39.8 | 78 | 89 | 0.0536 | – | – | – | – | – | – | – | – | – | > 9.59 | > 9.59 | 0.0913 | CC50 [1, 23]: > 29.9 µM
C[C@@H]1C[C@@H]([C@H](O)CC2CC(=O)NC(=O)C2)C(=O)[C@@H](C)C1 [Cycloheximide] | 1.47 | 50 | 98 | 0.195 | – | – | – | – | – | – | – | – | – | 0.634 | > 9.44 | 0.268 | CC50 [1, 23]: > 2.43 µM; Emax [2]: 101%; Emax [3]: 100%; CC50 at 24 h [4, 27]: ≤ 3 µM; HeLa-ACE2 uninfected cytotoxicity Sinf Average [8]: -80%; Calu-3 uninfected cytotoxicity Sinf Average ([7]; human): -39%
CNC(=O)n1ccc2cc(Oc3ccnc(NC(=O)c4ccc(C5CCN(CCO)CC5)cc4)c3)c(OCCOC)cc21 [E-7090] | 21.2 | 73 | 62 | 0.753 | – | – | – | – | – | – | – | – | – | 2.64 | > 9.59 | > 2.59 | CC50 at 48 h [1, 10]: 15 µM; Emax [2]: 100%; HeLa-ACE2 uninfected cytotoxicity Sinf Average [8]: -100%; uninfected Calu-3 CC50 [7]: 14.98 ×÷ 1.32 (n=3) μM; Calu-3 uninfected cytotoxicity Sinf Average ([7]; human, 48 h): -97%
CC[C@H]1CN2CCc3cc(OC)c(OC)cc3[C@@H]2C[C@@H]1C[C@H]1NCCc2cc(OC)c(OC)cc21 [Emetine] | 0.34 | 78 | 100 | 0.444 | – | – | – | – | – | – | – | – | – | 0.0601 | 0.783 | > 3.56 | CC50 [1, 23]: > 8.87 µM; Emax [2]: 100%; Emax [3]: 98%; CC50 at 24 h [4, 27]: ≤ 3 µM; HeLa-ACE2 uninfected cytotoxicity Sinf Average [8]: -99%; Calu-3 uninfected cytotoxicity Sinf Average ([7]; human): -47%
N#Cc1cccc(C(C(=O)NCC(c2ccccc2)c2ccccc2)N(CCc2c[nH]cn2)C(=O)c2ccccc2C(=O)c2ccccc2)c1 (stereo not shown) [GENZ-29155] | – | – | – | – | > 9.59 | > 9.59 | > 38.5 | – | > 9.98 | 79 | > 4.66 | > 29.9 | > 29.867 ×÷ 1 (n=3) μM | – | – | – | HeLa-ACE2 CoV-2 Sinf Average (%) ([2]; Sinf average of the curves): -67%; HeLa-ACE2 uninfected cytotoxicity Sinf Average (%) [8]: -67%; Calu-3 uninfected cytotoxicity Sinf Average (%) ([7]; human, 48 h): 0%
CCCCCCCC/C=C/CCCCCCCC(=O)OC[C@H]1O[C@@H](n2ccc(N)nc2=O)C(F)(F)[C@@H]1O [Gemcitabine elaidate] | < 0.00582 | 48 | 90 | 0.324 | – | – | – | – | – | – | – | – | – | > 9.59 | < 0.0122 | > 3.7 | CC50 at 48 h [1, 10]: > 29.9 µM; Emax [3]: 51%; CC50 at 24 h [4, 27]: ≤ 3 µM; HeLa-ACE2 uninfected cytotoxicity Sinf Average [8]: -53%; uninfected Calu-3 CC50 [7]: > 29.867 ×÷ 1 (n=3) μM; Calu-3 uninfected cytotoxicity Sinf Average ([7]; human, 48 h): -100%
CSc1ccc(CN2CCCC(Nc3ccc4[nH]ncc4c3)C2)cc1 (stereo not shown) [INS-117548] | – | – | – | – | > 9.59 | > 9.59 | > 39.8 | 55 | 0.31 | 77 | > 3.55 | > 29.9 | > 29.875 ×÷ 1 (n=2) μM | – | – | – | HeLa-ACE2 uninfected cytotoxicity Sinf Average (%) [8]: -100%; Calu-3 uninfected cytotoxicity Sinf Average (%) ([7]; human, 48 h): -92%
C[C@]12O[C@H](C[C@]1(O)CO)n1c3ccccc3c3c4c(c5c6ccccc6n2c5c31)CNC4=O [Lestaurtinib] | 0.758 | 100 | 91 | 0.674 | – | – | – | – | – | – | – | – | – | 0.546 | 0.614 | > 4.71 | CC50 [1, 23]: > 20.1 µM; Emax [2]: 99%; Emax [3]: 102%; CC50 at 24 h [4, 27]: ≤ 3 µM; HeLa-ACE2 uninfected cytotoxicity Sinf Average [8]: -100%; Calu-3 uninfected cytotoxicity Sinf Average ([7]; human): -98%
N=C(N)Nc1ccc(C(=O)Oc2ccc(S(N)(=O)=O)cc2)cc1 [Ono-3307] | – | – | – | – | > 9.59 | > 9.59 | > 39.8 | 99 | 3.58 | 96 | 1.6 | > 29.9 | > 29.867 ×÷ 1 (n=3) μM | – | – | – | CC50 at 48 h ([1]; Calu-3 Uninf. cells CC50 (µM)): > 30 µM; EC50 [2, 28]: > 9.6 µM; CC50 at 24 h [4, 29]: > 40 µM; EC50 [6, 30]: 1.6 µM
C=CC(=O)Nc1cc(Nc2nccc(-c3cn(C)c4ccccc34)n2)c(OC)cc1N(C)CCN(C)C [Osimertinib] | – | – | – | – | – | – | – | – | – | – | – | – | – | – | – | – | EC50 ratio between the standard 24 h and the TOA assay [9]: > 8; SI in Calu-3 ([6]; CC50/EC50): < 2
CC(=O)N1C[C@H](O)C[C@H]1C(=O)N[C@@H](CCCNC(=N)N)C(=O)c1nc2ccccc2s1 [RWJ-56423] | – | – | – | – | > 9.59 | > 9.59 | > 39.8 | 100 | 2.85 | 89 | 1.23 | > 29.9 | > 29.867 ×÷ 1 (n=3) μM | – | – | – | CC50 at 48 h ([1]; Calu-3 Uninf. cells CC50 (µM)): > 30 µM; EC50 [2, 28]: > 9.6 µM; CC50 at 24 h [4, 29]: > 40 µM; EC50 [6, 30]: 1.23 µM
N=C(N)c1ccc2cc(OC(=O)c3ccc(CNC(=O)CCCC(=O)O)o3)ccc2c1 [TO-195] | – | – | – | – | > 6.42 | > 9.59 | > 39.8 | 84 | 1.16 | 91 | 0.657 | > 29.9 | > 29.867 ×÷ 1 (n=3) μM | – | – | – | CC50 at 48 h ([1]; Calu-3 Uninf. cells CC50 (µM)): > 30 µM; EC50 [2, 28]: > 6.4 µM; CC50 at 24 h [4, 29]: > 40 µM; EC50 [6, 30]: 0.657 µM; Calu-3 uninfected cytotoxicity Sinf Average (%) ([7]; human, 48 h): -100%
NC(N)=Nc1ncc(Cl)c2ccc(-c3cccc(C(=O)O)c3)cc12 [UK-356202] | – | – | – | – | > 9.59 | > 9.59 | > 39.8 | 98 | > 7.28 | 85 | 1.92 | > 29.9 | > 29.875 ×÷ 1 (n=2) μM | – | – | – | –
CC(=N)N1CCC(Oc2ccc(N(Cc3ccc4ccc(C(=N)N)cc4c3)S(=O)(=O)CC(=O)O)cc2)CC1 [YM 60828] | – | – | – | – | > 9.59 | > 9.59 | > 39.8 | 100 | 6.81 | – | 3.18 | > 29.9 | > 29.867 ×÷ 1 (n=3) μM | – | – | – | –
